Measurements taken from paper PMC10914731, “Homo-BacPROTAC-induced degradation of ClpC1 as a strategy against drug-resistant mycobacteria” (Nature Communications, 2024).
≈ marks a conversion by molar mass, not a printed value. Where “and” joins values, the source holds several entries; their conditions need not be identical. Equal entries are not always repeated. Where two headings read alike, the source gives them in different places.

Legend:
[1] = test system: M. tuberculosis H37Rv (ATCC 27294); test: microbe, parasite or virus in culture; format: cell-based
Mtb # 11291 = test: microbe, parasite or virus in culture; format: cell-based; conditions: for MIC: read-out: MIC Mtb # 11291
Mtb (moxR) FNDR-M1 = test: microbe, parasite or virus in culture; format: cell-based
Mtb # 8673 = test: microbe, parasite or virus in culture; format: cell-based
[2] = test system: Mtb (katG del) ATCC 35822; test: microbe, parasite or virus in culture; format: cell-based
Mtb ATCC 35825 = test: microbe, parasite or virus in culture; format: cell-based
Mycobacterium avium = test: microbe, parasite or virus in culture; format: cell-based
[3] = test system: non-replicating cells of Mtb H37Rv; format: cell-based, Mycobacterium tuberculosis
Mycobacterium fortuitum = test: microbe, parasite or virus in culture; format: cell-based
Mycobacterium abscessus = test: microbe, parasite or virus in culture; format: cell-based
[4] = test system: Mycobacterium intracellulare; test: microbe, parasite or virus in culture; format: cell-based; conditions: Mycobacterium intracellulare; mean ± SD; read-out: MIC Mycobacterium intracellulare
Msm 607 = test: microbe, parasite or virus in culture; format: cell-based
[5] = test system: Mtb H37Rv in THP-1 macrophages; test: Intracellular MIC assay in THP-1 macrophages; format: cell-based, Mycobacterium tuberculosis; conditions: H37RV, 19.44 µM
[6] = Mycobacterium tuberculosis, M. tuberculosis H37Rv 27294, single well replicates, read-out: MIC
[7] = Mycobacterium tuberculosis, Mtb H37Rv, mean ± SD, n = 3 well replicates, read-out: MIC
[8] = Mycobacterium tuberculosis, mean, n = 2 well replicates
[9] = Mycobacterium tuberculosis, single well replicates
[10] = M. tuberculosis FNDR-M1, single well replicates
[11] = Mycobacterium tuberculosis, Mtb (moxR) FNDR-M1, mean ± SD, n = 3 well replicates
[12] = Mycobacterium tuberculosis, ATCC35822, M. tuberculosis ATCC 35822, single well replicates
[13] = Mycobacterium tuberculosis, ATCC35822, Mtb (katG del) ATCC 35822, mean ± SD, n = 3 well replicates
[14] = Experiment 2, three replicate columns

In the case of `NNC(=O)c1ccncc1` [Isoniazid], the MIC ([1]; M. tuberculosis H37Rv 27294, single well replicates, read-out: MIC) is reported as 0.23 µM (≈ 0.0315 µg/mL), the MIC [1, 6] is reported as 0.23 µM (≈ 0.0315 µg/mL) and the MIC [1, 7] is reported as 0.2 µM (≈ 0.0274 µg/mL). The MIC (Mtb # 11291; [8]) was 3.6 µM and 0.5 µg/mL, the MIC (Mtb # 11291; [9]) was 3.65 µM and 0.5 µg/mL and the “MIC Mtb # 11291” value (Mtb # 11291; single well replicates) was 0.5 µg/mL (≈ 3.65 µM). The MIC (Mtb # 11291; single well replicates) was 3.65 µM (≈ 0.501 µg/mL), the MIC (Mtb (moxR) FNDR-M1; [10]) was 0.11 µM (≈ 0.0151 µg/mL) and the MIC (Mtb (moxR) FNDR-M1; Mycobacterium tuberculosis, M. tuberculosis FNDR-M1, single well replicates) was 0.11 µM (≈ 0.0151 µg/mL). For the same compound, the MIC (Mtb (moxR) FNDR-M1; [11]) was 0.1 µM (≈ 0.0137 µg/mL), the MIC (Mtb # 8673; [8]) was 467 µM and 64 µg/mL and the MIC (Mtb # 8673; [9]) was 467 µM and 64 µg/mL. The MIC (Mtb # 8673; single well replicates) was 466.68 µM (≈ 64 µg/mL), the “MIC Mtb # 8673” value (Mtb # 8673; single well replicates) was 64 µg/mL (≈ 467 µM) and the MIC ([2]; M. tuberculosis ATCC 35822, single well replicates) was >232.22 µM. The MIC [2, 12] was > 232 µM and the MIC [2, 13] was > 232 µM.

`CO[C@H]1/C=C/O[C@@]2(C)Oc3c(C)c(O)c4c(O)c(c(/C=N/N5CCN(C)CC5)c(O)c4c3C2=O)NC(=O)/C(C)=C\C=C\[C@H](C)[C@H](O)[C@@H](C)[C@@H](O)[C@@H](C)[C@H](OC(C)=O)[C@@H]1C` [Rifampicin, reference compound] was tested, and the MIC [1, 6] was 0.00949 µM (≈ 0.00781 µg/mL), the MIC [1, 7] was 0.01 µM (≈ 0.00823 µg/mL) and the MIC ([1]; Mycobacterium tuberculosis, Set 1, read-out: MIC (Mtb H37Rv) Set 1) was 0.00948 µM and 0.0078 µg/mL. For the same compound, the MIC ([1]; Mycobacterium tuberculosis, Set 2, read-out: MIC (Mtb H37Rv) Set 2) was 0.00948 µM and 0.0078 µg/mL, the MIC ([1]; Mycobacterium tuberculosis, Set 3, done at a different day than Set 1 and Set 2, read-out: MIC (Mtb H37Rv) Set 3) was 0.00948 µM and 0.0078 µg/mL and the MIC ([1]; Mycobacterium tuberculosis, individual example (Supplementary Table 11), read-out: MIC Mtb H37Rv) was 0.01 µM and 0.01 µg/mL. The MIC ([1]; Mycobacterium tuberculosis, mean of 3 experiments +/- SD, unit taken from the sets above in the same table, read-out: MIC data (Mtb H37Rv) (+/- SD)) was 0.009 µM and 0.0078 µg/mL, the MIC (Mtb ATCC 35825; Mycobacterium tuberculosis, ATCC35825, mean, n = 2 well replicates) was 0.005 µM and 0.004 µg/mL and the MIC (Mtb ATCC 35825; Mycobacterium tuberculosis, ATCC35825, single well replicates) was 0.004 µg/mL and 0.005 µM. The MIC (Mtb ATCC 35825; single well replicates) was 0.005 µM (≈ 0.00411 µg/mL), the “MIC Mtb ATCC 35825” value (Mtb ATCC 35825; single well replicates) was 4 ng/mL (≈ 0.00486 µM) and the “MIC (µg/ml) Mycobacterium avium” value (Mycobacterium avium; [14]) was 0.25 µg/mL (≈ 0.304 µM). For the same compound, the MIC (Mycobacterium avium; Experiment 2, three replicate columns, read-out: MIC (µM) Mycobacterium avium) was 0.30 µM, the MIC (Mycobacterium avium; Mycobacterium avium, Experiment 2, three replicate columns, read-out: MIC (µM) Mycobacterium avium) was 0.3 µM and the MIC (Mycobacterium avium; Mycobacterium avium, Experiment 2, three replicate columns, read-out: MIC (µg/ml) Mycobacterium avium) was 0.25 µg/mL. For the same compound, the MIC (Mycobacterium avium; Mycobacterium avium, mean ± SD, read-out: MIC Mycobacterium avium) was 0.3 µM, the “inhibitory activity on non-growing Mtb H37Rv” value [3] was “retained a partial inhibitory activity” and the “MIC (µg/ml) Mycobacterium fortuitum” value (Mycobacterium fortuitum; [14]) was 1 µg/mL (≈ 1.22 µM). It also gave an MIC (Mycobacterium fortuitum; Experiment 2, three replicate columns, read-out: MIC (µM) Mycobacterium fortuitum) of 1.22 µM, an MIC (Mycobacterium fortuitum; Mycolicibacterium fortuitum, Experiment 2, three replicate columns, read-out: MIC (µM) Mycobacterium fortuitum) of 1.22 µM and an MIC (Mycobacterium fortuitum; Mycolicibacterium fortuitum, Experiment 2, three replicate columns, read-out: MIC (µg/ml) Mycobacterium fortuitum) of 1 µg/mL. For the same compound, the MIC (Mycobacterium fortuitum; Mycolicibacterium fortuitum, mean ± SD, read-out: MIC Mycobacterium fortuitum) was 1.2 µM, the “MIC (µg/ml) Mycobacterium abscessus” value (Mycobacterium abscessus; [14]) was 8 µg/mL (≈ 9.72 µM) and the MIC (Mycobacterium abscessus; Experiment 2, three replicate columns, read-out: MIC (µM) Mycobacterium abscessus) was 9.72 µM. It also gave an MIC (Mycobacterium abscessus; Mycobacteroides abscessus, Experiment 2, three replicate columns, read-out: MIC (µM) Mycobacterium abscessus) of 9.72 µM, an MIC (Mycobacterium abscessus; Mycobacteroides abscessus, Experiment 2, three replicate columns, read-out: MIC (µg/ml) Mycobacterium abscessus) of 8 µg/mL and an MIC (Mycobacterium abscessus; Mycobacteroides abscessus, mean ± SD, read-out: MIC Mycobacterium abscessus) of 9.7 µM. The MIC [4] was 0.2 µM (≈ 0.165 µg/mL), the MIC (Msm 607; Mycolicibacterium smegmatis, 607, read-out: MIC Msm #607, individual example (Supplementary Table 11)) was 9.7 µM and 8 µg/mL and the MIC (Msm 607; Mycolicibacterium smegmatis, ATCC607, Set-3, done at a different day than Set 1 and Set 2, read-out: MIC (Msm ATCC607) Set-3) was 9.72 µM and 8 µg/mL. For the same compound, the MIC (Msm 607; Mycolicibacterium smegmatis, ATCC607, mean of 3 experiments ± SD, read-out: MIC including standard deviations (Msm ATCC607)) was 13 µM and 10.6 µg/mL, the MIC (Msm 607; Mycolicibacterium smegmatis, ATCC607, read-out: MIC (Msm ATCC607) Set-1) was 9.72 µM and 8 µg/mL and the MIC (Msm 607; Mycolicibacterium smegmatis, ATCC607, read-out: MIC (Msm ATCC607) Set-2) was 19.4 µM and 16 µg/mL. For the same compound, the MIC (Mtb # 11291; [8]) was 0.005 µM and 0.004 µg/mL, the MIC (Mtb # 11291; [9]) was 0.005 µM and 0.004 µg/mL and the “MIC Mtb # 11291” value (Mtb # 11291; single well replicates) was 0.004 µg/mL (≈ 0.00486 µM). The MIC (Mtb # 11291; single well replicates) was 0.005 µM (≈ 0.00411 µg/mL), the MIC (Mtb (moxR) FNDR-M1; [10]) was 0.019 µM and 0.00949 µM (2×) and the MIC (Mtb (moxR) FNDR-M1; [11]) was 0.01 µM (≈ 0.00823 µg/mL). The intracellular viable mycobacteria ([5]; 96 h) was 4.26 log10 cfu/ml, the intracellular viable mycobacteria ([5]; 168 h) was 3.56 log10 cfu/ml and the MIC (Mtb # 8673; [8]) was 38.9 µM and 32 µg/mL. The MIC (Mtb # 8673; [9]) was 38.9 µM and 32 µg/mL, the MIC (Mtb # 8673; single well replicates) was 38.88 µM (≈ 32 µg/mL) and the “MIC Mtb # 8673” value (Mtb # 8673; single well replicates) was 32 µg/mL (≈ 38.9 µM). It also gave an MIC [2, 12] of 0.00949 µM (≈ 0.00781 µg/mL) and an MIC [2, 13] of 0.01 µM (≈ 0.00823 µg/mL).
